# Experimental data: patent US7094760B2, “Peptides for treatment of inflammation and shock” (Salpep Biotechnology, Inc., priority 1996, dated 2006)
# What was measured:
# Format in all cases: in vivo, rat
# [1] = test system: neutrophils from carrageenin-soaked sponges; experiment: superoxide production by neutrophils from carrageenin-soaked sponges of treated rats; settings: intravenous SGP-T 4 hr. before implantation of the sponge
# Protocol: Under halothane anaesthesia the sponge was removed from its subcutaneous site and the fluid was squeezed from it into a test tube. Following centrifugation at 2,000 g for 10 min, the exudate was decanted and the remaining cells were suspended in 4 ml of 0.9% saline, and their number determined using a Coulter Counter. One ml of the remaining cell suspension was extracted for use in the superoxide assay.
# Neutrophils (10^6) were suspended in PBS buffer of the following composition: NaCl 137 mM, KCl 2.7 mM, Na2HPO4, 8.1 mM, KH2PO4 1.47 mM, CaCl2 1.19 mM, MgCl2 0.54 mM, glucose 7.5 mM and cytochrome C 1.5 mM (Sigma Chemical Co. St. Louis, […].) incubated at 37 C. Each sample was read along with a reference sample containing 1440 units of superoxide dismutase (Sigma) in a spectrophotometer (Hitachi, U200 spectrophotometer). The rate of superoxide production in response to 10^−7M phorbol myristate acetate (PMA) or 10^−5 M N-formyl-methionyl-leucyl-phenylalanine (fMLP) was then inferred from the slope. […]
# Intravenous injections of SGP-T inhibited neutrophil influx into a carrageenin-soaked sponge in a dose-dependent manner (FIG. 4). When the ability of neutrophils obtained from the carrageenin-soaked sponges to generate superoxide anion was evaluated, those obtained from saline-treated rats were totally refractory to f MLP and phorbol myristate acetate (PMA).
# [2] = test system: rats sensitized to hen egg albumin; experiment: intestinal anaphylaxis (diarrhoea, disrupted MMCs), egg albumin-sensitized rats, Example 3; settings: intravenously
# Description: SGP-T was also effective in preventing intestinal anaphylaxis.
# [3] = test system: LPS (Salmonella typhosa)-induced hypotension in sialadenectomized rats; experiment: endotoxin (LPS)-induced hypotension, sialadenectomized rats
# Protocol: The animal model of endotoxic shock used involves intravenous injection of endotoxin (3.5 mg/kg of lipopolysaccharide (LPS) from Salmonella typhosa) into pentobarbital-anaesthetized Sprague-Dawley rats, to produce a fall in mean arterial blood pressure within 3 to 5 minutes. The endotoxin was injected slowly over 1 min. via the jugular vein, and mean arterial blood pressure in mm mercury (MABP) was monitored continuously for 60 min, with the average blood pressure being calculated at 15, 30, 45 and 60 min. Studies were performed on unoperated rats and rats with their submandibular glands removed (sialadenectomized).
# The results shown in Table 1 are the averages of three different experiments using the protocol defined above. The data shown represent the average decrease in MABP (dec MABP) and the % Decrease in MABP over the 60 minutes following LPS administration. SGP-S (100μg/kg) and SGP-T (100 μg/kg) were administered 90 min. before LPS. […] Neither SGP-T nor SGP-S, when given prior to the LPS challenge, had appreciable effects on MABP.
# The dose-response relationship of the inhibitory effect of SGP-T and SGP-S on endotoxin-induced hypotension was also examined and the results are shown in FIG. 1.
# [4] = peptide 100 μg/kg 90 min before LPS 3.5 mg/kg iv
substance,measurement,setting,value
"NH2-Thr-Asp-Ile-Phe-Glu-Gly-Gly-COOH (H-TDIFEGG-OH) [SGP-T, submandibular gland peptide T, TDIFEGG]",superoxide generation in response to fMLP and PMA by sponge neutrophils,[1],able to generate substantial amounts of superoxide
same,manifestation of anaphylaxis,[2]; 100 μg/kg,totally prevented
same,"anaphylactic reactions (diarrhoea, disruption of MMCs)",[2]; doses as low as 10 μg/kg,significantly attenuated
same,prevention of shock,[3]; doses higher than 10 μg/kg,less effective
same,LPS-provoked drop in blood pressure,"[3]; doses of 1, 3.5 and 10 μg/kg",significantly prevented
same,"decrease in blood pressure induced by LPS, dose-response",[3]; intravenously 1.5 hours before LPS,dose-dependently inhibited
same,% Dec = percent decrease in MABP relative to MABPbef,[3]; [4],−36.3 ± 3.3%
same,MABPaft = average MABP for 60 mins after LPS injection,[3]; [4],77.2 ± 3.9 mm Hg
same,dec MABP = decrease in MABP after LPS relative to MABPbef,[3]; [4],−46.1 ± 4.9 mm Hg
